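1) Cells in 96-well plates. 2) Compound, 48 h, 5 concentrations. 3) Linear interpolation between surrounding doses. 4) Unreached endpoint = highest concentration. GI50 marks 50% less growth. The concentration for full growth arrest is given as TGI.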
Tests used:
Experiment in all cases: DTP human tumour cell line panel, 48 h
SK-OV-3 ovarian = tested on: SK-OV-3 ovarian
U251 CNS = tested on: U251 CNS
HOP-62 NSCLC = tested on: HOP-62 NSCLC
HCC-2998 colon = tested on: HCC-2998 colon
OVCAR-4 ovarian = tested on: OVCAR-4 ovarian
MCF7 breast = tested on: MCF7 breast
EKVX NSCLC = tested on: EKVX NSCLC
CCRF-CEM leukemia = tested on: CCRF-CEM leukemia
MDA-MB-468 breast = tested on: MDA-MB-468 breast
MDA-MB-435 = tested on: MDA-MB-435
NCI-H460 lung = tested on: NCI-H460 lung
SN12C renal = tested on: SN12C renal
OVCAR-8 ovarian = tested on: OVCAR-8 ovarian
HT29 colon = tested on: HT29 colon
SK-MEL-2 melanoma = tested on: SK-MEL-2 melanoma
DU-145 prostate = tested on: DU-145 prostate
MDA-MB-231 breast = tested on: MDA-MB-231 breast
RXF 393 renal = tested on: RXF 393 renal
NCI-H23 lung = tested on: NCI-H23 lung
SNB-75 CNS = tested on: SNB-75 CNS
SK-MEL-28 melanoma = tested on: SK-MEL-28 melanoma
OVCAR-5 ovarian = tested on: OVCAR-5 ovarian
SR leukemia = tested on: SR leukemia
UO-31 renal = tested on: UO-31 renal
T-47D breast = tested on: T-47D breast
CAKI-1 renal = tested on: CAKI-1 renal
NCI-H226 lung = tested on: NCI-H226 lung
RPMI-8226 leukemia = tested on: RPMI-8226 leukemia
ACHN renal = tested on: ACHN renal
HCT-15 colon = tested on: HCT-15 colon

O=C(Nc1ccc(Cl)c(C(F)(F)F)c1)N1CCN(c2cc(-c3cn(-c4ccccc4)nc3-c3cccc(O)c3)ccn2)CC1
TGI (SK-OV-3 ovarian): > 22 µM | GI50 (U251 CNS): 4.23 µM | TGI (U251 CNS): > 22 µM | GI50 (HOP-62 NSCLC): 6.28 µM | TGI (HOP-62 NSCLC): > 22 µM | GI50 (HCC-2998 colon): 6.1 µM | TGI (HCC-2998 colon): > 22 µM | GI50 (OVCAR-4 ovarian): 2.02 µM | TGI (OVCAR-4 ovarian): > 22 µM | GI50 (MCF7 breast): 1.8 µM | TGI (MCF7 breast): 10.1 µM | GI50 (EKVX NSCLC): 2.57 µM | TGI (EKVX NSCLC): 19.6 µM | GI50 (CCRF-CEM leukemia): 1.59 µM | TGI (CCRF-CEM leukemia): 9.71 µM | GI50 (MDA-MB-468 breast): 1.03 µM | TGI (MDA-MB-468 breast): 7.22 µM | GI50 (MDA-MB-435): 2.29 µM | TGI (MDA-MB-435): 6.33 µM | GI50 (NCI-H460 lung): 2.47 µM | TGI (NCI-H460 lung): > 22 µM | GI50 (SN12C renal): 3.21 µM | TGI (SN12C renal): > 22 µM | GI50 (OVCAR-8 ovarian): 4.72 µM | TGI (OVCAR-8 ovarian): > 22 µM | GI50 (HT29 colon): 4.1 µM | TGI (HT29 colon): > 22 µM | GI50 (SK-MEL-2 melanoma): 3.54 µM | TGI (SK-MEL-2 melanoma): 7.56 µM | GI50 (DU-145 prostate): 7.15 µM | TGI (DU-145 prostate): > 22 µM | GI50 (MDA-MB-231 breast): 3.07 µM | TGI (MDA-MB-231 breast): 7.57 µM | GI50 (RXF 393 renal): 2.42 µM | TGI (RXF 393 renal): 9.79 µM | GI50 (NCI-H23 lung): 3.69 µM | TGI (NCI-H23 lung): 14.9 µM | GI50 (SNB-75 CNS): 0.634 µM | TGI (SNB-75 CNS): 11.1 µM | GI50 (SK-MEL-28 melanoma): 3.41 µM | TGI (SK-MEL-28 melanoma): 10.3 µM | GI50 (OVCAR-5 ovarian): 4.13 µM | TGI (OVCAR-5 ovarian): 10.5 µM | GI50 (SR leukemia): 3.07 µM | TGI (SR leukemia): > 22 µM | GI50 (UO-31 renal): 3 µM | TGI (UO-31 renal): > 22 µM | GI50 (T-47D breast): 1.13 µM | TGI (T-47D breast): 14.8 µM | GI50 (CAKI-1 renal): 4.18 µM | TGI (CAKI-1 renal): 19.4 µM | GI50 (NCI-H226 lung): 3.22 µM | TGI (NCI-H226 lung): 15.8 µM | GI50 (RPMI-8226 leukemia): 1.21 µM | TGI (RPMI-8226 leukemia): 11.8 µM | GI50 (ACHN renal): 3 µM | TGI (ACHN renal): 17 µM | GI50 (HCT-15 colon): 2.84 µM | TGI (HCT-15 colon): > 22 µM
